Columns and labels:
[1] = system: anti-lysozyme IgG; experiment: Immunoenzymatic measurement of anti-lysozyme IgG in serum of mice immunized against lysozyme; format: in vivo, C57BL/6 mice; conditions: for Optical densities +/- SD, anti-lysozyme IgG, 1/180 serial dilution: serum 1/180; for Optical densities +/- SD, anti-lysozyme IgG, 1/180 serial dilution / Optical densities +/- SD, anti-lysozyme IgG, 1/540 serial dilution / Optical densities +/- SD, anti-lysozyme IgG, first serial dilution: s.c., mean of 5 mice; for Optical densities +/- SD, anti-lysozyme IgG, 1/180 serial dilution / Optical densities +/- SD, anti-lysozyme IgG, 1/540 serial dilution: doses and timing as E1; for Optical densities +/- SD, anti-lysozyme IgG, 1/540 serial dilution: serum 1/540; for Optical densities +/- SD, anti-lysozyme IgG, first serial dilution: serum dilution not given, PREG 0,5 g/kg, DHEA 1,0 g/kg, ADIOL 125 mg/kg 1 hour before lysozyme, 7-hydroxy-PREG and 7-hydroxy-DHEA 6,25 mg/kg, 7β-hydroxy-DHEA 50,0 mg/kg, 7- and 7β-hydroxy-ADIOL 25,0 mg/kg with lysozyme; for Optical densities +/- SD, anti-lysozyme IgG, first serial dilution (*): dilution not given, PREG 0,5 g/kg 1 hour before; for Effect on serum anti-lysozyme IgG (in words): steroid administered s.c. simultaneously with lysozyme
Experimental: The immunity effector effect was tested by subcutaneous injection concomitantly with that of an antigen and the 7-alpha- or 7-beta-hydroxylated derivative into C57BL/6 mice according to a standard immunization protocol (Methods in Enzymology (1980), vol. 70).
The effect of the compound as cellular immunity effector is measured by the quantity of circulating IgG directed against the antigen 21 days after the injection and after a booster injection 14 days layer.
Thirty five groups of five 6-weeks old C57BL/6 mice are given a subcutaneous injection of 200 ug of hen egg white lysozyme on days one and fourteen of the immunization protocol. Solutions of DHEA (Sigma D-4500) in dimethyl sulfoxide (DMSO) are injected in the same manner at variable times before the first injection of lysozyme. Amounts ranging from 0.25 and 2 g/kg are used. Ten other groups of 5 mice are given a subcutaneous injection of 6.25 to 50 mg/kg of 7-alpha-hydroxy-DHEA or 7-beta-hydroxy-DHEA dissolved in DMSO at the same time as the first lysozyme injection. Two groups receive only DMSO with lysozyme (controls). The blanks correspond to one group of 5 mice and are not given an injection.
Three weeks after the first injections the animals, then aged 9 weeks, are decapitated. The blood of each animal is collected and the presence of anti-lysozyme G immunoglobulins (IgG) is measured in serial dilutions of the sera by an immunoenzymatic titration using goat anti-mouse (Fc) IgG immunoglobulin labelled with peroxidase.
A group of 5 mice is given the subcutaneous injection of 125 mg/kg of 5-androstene-3-beta, 17-beta-diol (ADIOL) one hour prior to the first injection of lysozyme, and two groups of 5 mice are treated with 25 mg/kg of 7-alpha-hydroxy-ADIOL or 7-beta-hydroxy-ADIOL at the time of the first lysozyme injection.
DHEA or PREG or ADIOL is injected subcutaneously 1 hour before the first lysozyme injection. The 7-hydroxylated derivatives are administered simultaneously with the lysozyme injection. The immunoenzymatic measurement of the anti-lysozyme IgGs in the serial dilutions of the sera of each animal makes use of goat anti-mouse (Fc) IgG immunoglobulin, labelled with peroxidase in 96-well plates treated with lysozyme. The mean value of the optical densities measured in each group of 5 mice is calculated as well as the standard deviation (SD).

[2] = biological target: T1, nuclear binding of tritiated dexamethazone (glucocorticoid receptors) (Mus musculus, UniProt P06537); experiment: Displacement of the nuclear binding of tritiated dexamethazone in isolated liver, brain, thymus and spleen cells; set-up: species or system C57BL/6 mouse; conditions: for Displacement coefficient for nuclear binding of tritiated dexamethazone, Liver: liver cells, 100-fold excess of steroid over 2-80 nM 3H-dexamethazone, 60 min; for Displacement coefficient for nuclear binding of tritiated dexamethazone, Liver / Displacement coefficient for nuclear binding of tritiated dexamethazone, Brain / Displacement coefficient for nuclear binding of tritiated dexamethazone, Spleen / Displacement coefficient for nuclear binding of tritiated dexamethazone, Thymus: no competitor = zero, unlabelled dexamethazone = 100, mean of triplicate; for Displacement coefficient for nuclear binding of tritiated dexamethazone, Brain: brain cells; for Displacement coefficient for nuclear binding of tritiated dexamethazone, Spleen: spleen cells; for Displacement coefficient for nuclear binding of tritiated dexamethazone, Thymus: thymus cells
T1 construct: The liver, brain, spleen and thymus are excised and the cells of each organ are recovered; from tissue; host or cells: isolated cells of liver, brain, spleen and thymus of metyrapone-treated C57BL/6 mice
T1 sequence (P06537 1-792): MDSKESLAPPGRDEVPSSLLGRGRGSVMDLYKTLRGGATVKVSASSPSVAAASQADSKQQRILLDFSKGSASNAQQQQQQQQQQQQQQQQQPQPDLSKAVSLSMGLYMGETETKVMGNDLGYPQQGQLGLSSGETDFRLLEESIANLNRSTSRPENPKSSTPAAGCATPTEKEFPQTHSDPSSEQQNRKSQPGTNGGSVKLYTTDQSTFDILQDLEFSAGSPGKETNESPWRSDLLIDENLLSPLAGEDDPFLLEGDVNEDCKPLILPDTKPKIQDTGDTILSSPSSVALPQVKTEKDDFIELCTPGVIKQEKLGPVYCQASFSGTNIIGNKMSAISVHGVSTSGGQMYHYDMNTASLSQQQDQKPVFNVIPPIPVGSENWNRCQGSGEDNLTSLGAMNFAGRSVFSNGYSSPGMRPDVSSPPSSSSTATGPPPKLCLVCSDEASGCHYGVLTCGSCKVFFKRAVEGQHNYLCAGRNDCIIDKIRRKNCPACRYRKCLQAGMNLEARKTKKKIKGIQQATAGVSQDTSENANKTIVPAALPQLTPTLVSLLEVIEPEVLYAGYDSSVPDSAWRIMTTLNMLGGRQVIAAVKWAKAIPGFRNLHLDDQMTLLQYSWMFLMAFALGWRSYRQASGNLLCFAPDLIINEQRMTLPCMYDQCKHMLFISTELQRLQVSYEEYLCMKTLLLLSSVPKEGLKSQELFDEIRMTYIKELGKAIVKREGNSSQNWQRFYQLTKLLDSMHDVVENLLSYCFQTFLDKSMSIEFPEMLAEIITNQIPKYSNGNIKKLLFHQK
Experimental: The isolated hepatocytes are incubated for 1 hour at room temperature with increasing concentrations (2-80 nM) of ^3 H-dexamethazone (DEX*). […] The hepatocyte nuclei are then isolated and purified and the radioactivity corresponding to the DEX* still bound is measured and expressed in cpm/10 ug of DNA. The area under the curve DEX* corresponds to zero displacement of the radioactivity. The area under the curve DEX*/DEX which corresponds to the displacement of radioactivity by the same molecule is taken arbitrarily as 100. The areas under the curve obtained with the other steroids makes it possible to calculate by interpolation between the areas zero and 100 their displacement coefficients for the nuclear binding of DEX*.
The mice are anesthetized with ether and bled, then perfused intracardially with physiological serum containing collagenase B (0.03 g/100 ml) for 10 minutes. […] The quantities of cells obtained are estimated on the base of the measurement of the DNA contained in the preparations.
The nuclei are recovered and their radioactive content measured as described by the authors cited above.
The area under the curve of tritiated dexamethazone alone is measured and taken as zero. […] The displacement coefficients found for each of the other steroids are calculated by interpolation on this scale, each result being the mean of a triplicate determination.

[3] = * calculated from measurements on higher dilutions of the serum, 7-hydroxy-PREG 6,25 mg/kg with lysozyme

C[C@]12CC[C@H]3[C@@H]([C@H](O)C=C4C[C@@H](O)CC[C@@]43C)[C@@H]1CC[C@@H]2O [7-hydroxy-ADIOL, androst-5-ene-3-beta, 7-alpha, 17-beta-triol]
Optical densities +/- SD, anti-lysozyme IgG, 1/180 serial dilution [1]: 0,14 ± 0,01 | Optical densities +/- SD, anti-lysozyme IgG, 1/540 serial dilution [1]: 0,11 ± 0,01 | Optical densities +/- SD, anti-lysozyme IgG, first serial dilution [1]: 0,15 ± 0,02 | Displacement of tritiated dexamethazone from nuclear binding / anti-glucocorticoid action (in words) ([2]; 100-fold excess of steroid): demonstrates its anti-glucocorticoid effect | Displacement coefficient for nuclear binding of tritiated dexamethazone, Liver [2]: 88

CC(=O)[C@H]1CC[C@H]2[C@@H]3[C@H](O)C=C4C[C@@H](O)CC[C@]4(C)[C@H]3CC[C@]12C [7-hydroxy-PREG, 7-alpha-hydroxy-PREG]
Optical densities +/- SD, anti-lysozyme IgG, first serial dilution (*) [1, 3]: 4,46 ± 0,30 | Optical densities +/- SD, anti-lysozyme IgG, 1/180 serial dilution (*) ([1]; * calculated from measurements on higher dilutions of the serum, 1/180, 7-hydroxy-PREG 6,25 mg/kg with lysozyme): 2,20 ± 0,14 | Optical densities +/- SD, anti-lysozyme IgG, 1/540 serial dilution [1]: 0,77 ± 0,05 | Displacement coefficient for nuclear binding of tritiated dexamethazone, Brain ([2]; 100-fold excess of steroid): 38 | Displacement coefficient for nuclear binding of tritiated dexamethazone, Liver [2]: 34 | Displacement coefficient for nuclear binding of tritiated dexamethazone, Spleen ([2]; 100-fold excess of steroid): 81 | Displacement coefficient for nuclear binding of tritiated dexamethazone, Thymus ([2]; 100-fold excess of steroid): 94

C[C@]12CC[C@H]3[C@@H]([C@@H](O)C=C4C[C@@H](O)CC[C@@]43C)[C@@H]1CC[C@@H]2O [7β-hydroxy-ADIOL, androst-5-ene-3-beta,7-beta, 17-beta-triol]
Optical densities +/- SD, anti-lysozyme IgG, 1/180 serial dilution [1]: 0,18 ± 0,02 | Optical densities +/- SD, anti-lysozyme IgG, 1/540 serial dilution [1]: 0,12 ± 0,01 | Optical densities +/- SD, anti-lysozyme IgG, first serial dilution [1]: 0,18 ± 0,06

C[C@]12CC[C@H](O)CC1=C[C@H](O)[C@@H]1[C@@H]2CC[C@]2(C)C(=O)CC[C@@H]12 [7β-hydroxy-DHEA, 3-beta, 7-beta-dihydroxy-androst-5-en-17-one]
Optical densities +/- SD, anti-lysozyme IgG, 1/180 serial dilution [1]: 0,31 ± 0,04 | Optical densities +/- SD, anti-lysozyme IgG, 1/540 serial dilution [1]: 0,13 ± 0,01 | Optical densities +/- SD, anti-lysozyme IgG, first serial dilution [1]: 0,46 ± 0,06 | Effect on serum anti-lysozyme IgG (in words) ([1]; listed as 7-beta-OH-DHEA): effect equivalent to that of DHEA injected 1 hour before the antigen, but at doses 20 times lower | Effect on serum anti-lysozyme IgG (in words) ([1]; listed as 7-beta-hydroxy-DHEA): response identical with that of 1 g/kg of DHEA administered 1 hour prior to that of lysozyme | Displacement coefficient for nuclear binding of tritiated dexamethazone, Brain ([2]; 100-fold excess of steroid): 65 | Displacement coefficient for nuclear binding of tritiated dexamethazone, Liver [2]: 80

CC(=O)[C@H]1CC[C@H]2[C@@H]3CC=C4C[C@@H](O)CC[C@]4(C)[C@H]3CC[C@]12C [PREG, 3-beta-hydroxy-5-pregnen-20-one, reference compound]
Optical densities +/- SD, anti-lysozyme IgG, first serial dilution (*) [1, 3]: 4,67 ± 1,21 | Optical densities +/- SD, anti-lysozyme IgG, 1/180 serial dilution [1]: 1,83 ± 0,48 | Optical densities +/- SD, anti-lysozyme IgG, 1/540 serial dilution [1]: 0,56 ± 0,15 | Effect on serum concentrations of anti-lysozyme IgG (in words) ([1]; steroid administered s.c. at least one hour prior to the injection of lysozyme): increase the serum concentrations of anti-lysozyme IgG

C[C@]12CC[C@H](O)C[C@@H]1[C@@H](O)C[C@@H]1[C@@H]2CC[C@]2(C)C(=O)CC[C@@H]12 [Steroid 6α-OH-ISOA, 3-beta, 6-alpha-dihydroxy-5-alpha-androstane-17-one]
Displacement coefficient for nuclear binding of tritiated dexamethazone, Liver [2]: 63

C[C@]12CC[C@H](O)CC1=CC(=O)[C@@H]1[C@@H]2CC[C@]2(C)C(=O)CC[C@@H]12 [Steroid 7-oxo-DHEA, 3-beta-hydroxy-5-androsten-7,17-dione]
Displacement coefficient for nuclear binding of tritiated dexamethazone, Liver [2]: 28

C[C@]12CC[C@H](O)C[C@@H]1CC(=O)[C@@H]1[C@@H]2CC[C@]2(C)C(=O)CC[C@@H]12 [Steroid 7-oxo-ISOA, 3-beta-hydroxy-5-alpha-androstane-7,17-dione]
Displacement coefficient for nuclear binding of tritiated dexamethazone, Liver [2]: 84

CC(=O)[C@H]1CC[C@H]2[C@@H]3C(=O)C=C4C[C@@H](O)CC[C@]4(C)[C@H]3CC[C@]12C [Steroid 7-oxo-PREG, 3-beta-hydroxy-5-pregnen-7,20-dione]
Displacement coefficient for nuclear binding of tritiated dexamethazone, Liver [2]: 35

C[C@]12CC[C@H](O)C[C@@H]1C[C@@H](O)[C@@H]1[C@@H]2CC[C@]2(C)[C@@H](O)CC[C@@H]12 [Steroid 7α-OH-ADIOL, 5-alpha-androstane-3-beta, 7-alpha, 17-beta-triol]
Displacement coefficient for nuclear binding of tritiated dexamethazone, Brain ([2]; 100-fold excess of steroid): 96 | Displacement coefficient for nuclear binding of tritiated dexamethazone, Liver [2]: 83 | Displacement coefficient for nuclear binding of tritiated dexamethazone, Spleen ([2]; 100-fold excess of steroid): 125 | Displacement coefficient for nuclear binding of tritiated dexamethazone, Thymus ([2]; 100-fold excess of steroid): 96

C[C@]12CC[C@H](O)C[C@@H]1C[C@@H](O)[C@@H]1[C@@H]2CC[C@]2(C)C(=O)CC[C@@H]12 [Steroid 7α-OH-ISOA, 3-beta, 7-alpha-dihydroxy-5-alpha-androstane-17-one]
Displacement coefficient for nuclear binding of tritiated dexamethazone, Liver [2]: 102

C[C@]12CC[C@H](O)C[C@@H]1C[C@H](O)[C@@H]1[C@@H]2CC[C@]2(C)C(=O)CC[C@@H]12 [Steroid 7β-OH-ISOA, 3-beta, 7-beta-dihydroxy-5-alpha-androstane-17-one]
Displacement coefficient for nuclear binding of tritiated dexamethazone, Liver [2]: 68

CC(=O)[C@H]1CC[C@H]2[C@@H]3[C@@H](O)C=C4C[C@@H](O)CC[C@]4(C)[C@H]3CC[C@]12C [Steroid 7β-OH-PREG, 7-beta-hydroxy-pregnenolone]
Displacement coefficient for nuclear binding of tritiated dexamethazone, Liver [2]: 82

From US5763433A, “Pharmaceutical compositions containing 3-beta-hydroxylated 6,7-substituted steroid derivatives, and use thereof” (Conservatoire National des Arts et Metiers, priority 1992, dated 1998)
